# Results: US10799507B2, “5-(7H-pyrrolo[2,3-d]pyrimidin-4-yl)-5-azaspiro[2.5]octane-8-carboxylic acid derivatives as novel JAK kinase inhibitors” (LEO Pharma A/S, priority 2017, dated 2020)
# What was measured:
# Assay type in all cases: biochemical
# JAK1 = JAK1 (Homo sapiens (Human), UniProt P23458); assay: JAK kinase assay (HTRF), JAK1; conditions: catalytic domain, ATP at Km (7 μM)
# Protocol: (§1) Human baculovirus-expressed JAK1, 2, 3 and TYK2 were purchased from Carna Biosciences, Inc. All four purified enzymes contain only the catalytic domain. JAK1 (aa 850-1154) and TYK2 (aa 871-1187) are expressed with an N-terminally fused GST-tag, and JAK2 and JAK3 with an N-terminally fused His-tag.
# (§2) Inhibition of phosphorylation of a synthetic peptide was measured in an HTRF-based assay using the TK substrate-Biotin from the Cisbio HTRFKinEASE TK kit. First, 2 μl of TK solution (TK substrate-biotin in kinase buffer [1× enzymatic buffer from HTRFKinEASE TK kit, 1 mM DTT]) is added to a plate containing 1 μl prediluted compound (final assay concentration DMSO: 0.75%). Then, 5 μl kinase-ATP mix (prepared in kinase buffer) is added to the wells and the plates are incubated at RT for 20-30 min. For all four kinases a concentration of ATP that corresponded to the Km for ATP was used. The final concentrations of buffers, substrate, kinase and ATP were: JAK1: 50 mM Hepes buffer pH 7.0, 0.01% BSA, 10 mM MgCl2, 1 mM DTT, 7 μM ATP, 50 nM SEB, 1 μM TK Substrate-Biotin and 5 ng JAK1; JAK2: 50 mM Hepes buffer pH 7.0, 0.01% BSA, 5 mM MgCl2, 1 mM DTT, 4 μM ATP, 1 μM TK Substrate-Biotin and 0.1 ng JAK2; JAK3: 50 mM Hepes buffer pH 7.0, 0.01% BSA, 5 mM MgCl2, 1 mM DTT, 2 μM ATP, 1 μM TK Substrate-Biotin and 0.3 ng JAK3; TYK2: 50 mM Hepes buffer pH 7.0, 0.01% BSA, 5 mM MgCl2, 1 mM DTT, 13 μM ATP, 50 nM SEB, 1 μM TK Substrate-Biotin and 0.8 ng TYK2. Thereafter, the kinase reaction is stopped by adding 4 μl detection mix (final concentrations: 50 mM Hepes buffer pH 7.0, 0.01% BSA, 0.8 M KF, 20 mM EDTA, 42 nM Streptavidin-XL665 and 1:400 STK Ab Cryptate) and the plates are incubated overnight in the dark. The HTRF signal is read using an Envision plate reader.
# JAK2 = JAK2 (Homo sapiens (Human), UniProt O60674); assay: JAK kinase assay (HTRF), JAK2; conditions: catalytic domain, ATP at Km (4 μM)
# JAK2, sequence (O60674 849-1124): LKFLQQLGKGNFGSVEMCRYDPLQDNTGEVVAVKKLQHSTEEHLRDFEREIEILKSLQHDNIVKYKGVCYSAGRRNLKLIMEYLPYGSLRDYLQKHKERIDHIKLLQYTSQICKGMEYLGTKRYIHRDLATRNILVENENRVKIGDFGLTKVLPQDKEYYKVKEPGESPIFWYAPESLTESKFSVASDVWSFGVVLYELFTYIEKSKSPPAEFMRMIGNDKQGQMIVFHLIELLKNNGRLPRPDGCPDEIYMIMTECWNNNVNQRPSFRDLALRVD
# Protocol: as §1, §2
# TYK2 = TYK2 (Homo sapiens (Human), UniProt P29597); assay: JAK kinase assay (HTRF), TYK2; conditions: catalytic domain, ATP at Km (13 μM)
# TYK2, sequence (P29597 871-1187): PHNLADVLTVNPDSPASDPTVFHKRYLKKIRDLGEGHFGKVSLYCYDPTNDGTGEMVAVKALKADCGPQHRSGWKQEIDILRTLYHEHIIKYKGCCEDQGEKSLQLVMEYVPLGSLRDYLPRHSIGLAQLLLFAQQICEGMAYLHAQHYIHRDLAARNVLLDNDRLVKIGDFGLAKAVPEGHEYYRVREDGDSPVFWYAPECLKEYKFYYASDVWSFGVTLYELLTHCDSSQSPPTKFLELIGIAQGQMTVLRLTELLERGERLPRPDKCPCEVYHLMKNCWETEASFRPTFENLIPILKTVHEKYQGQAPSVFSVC
# Protocol: as §1, §2
# (§3) In Table 1 selected JAK kinase inhibitory activities are listed along with analytical tR and observed M+H^+ data (UPLC-MS method 7).
# JAK3 = JAK3 (Homo sapiens (Human), UniProt P52333); assay: JAK kinase assay (HTRF), JAK3; conditions: catalytic domain, ATP at Km (2 μM)
# JAK3, sequence (P52333 822-1111): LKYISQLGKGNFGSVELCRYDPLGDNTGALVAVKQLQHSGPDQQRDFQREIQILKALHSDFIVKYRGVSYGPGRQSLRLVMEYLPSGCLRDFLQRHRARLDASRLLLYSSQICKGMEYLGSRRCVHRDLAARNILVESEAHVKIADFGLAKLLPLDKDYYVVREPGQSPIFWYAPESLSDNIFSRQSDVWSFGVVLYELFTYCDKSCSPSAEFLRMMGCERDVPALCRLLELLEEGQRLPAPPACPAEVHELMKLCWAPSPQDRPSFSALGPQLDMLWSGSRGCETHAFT
# Protocol: as §1, §2, §3
# JAK1, sequence (P23458 850-1154): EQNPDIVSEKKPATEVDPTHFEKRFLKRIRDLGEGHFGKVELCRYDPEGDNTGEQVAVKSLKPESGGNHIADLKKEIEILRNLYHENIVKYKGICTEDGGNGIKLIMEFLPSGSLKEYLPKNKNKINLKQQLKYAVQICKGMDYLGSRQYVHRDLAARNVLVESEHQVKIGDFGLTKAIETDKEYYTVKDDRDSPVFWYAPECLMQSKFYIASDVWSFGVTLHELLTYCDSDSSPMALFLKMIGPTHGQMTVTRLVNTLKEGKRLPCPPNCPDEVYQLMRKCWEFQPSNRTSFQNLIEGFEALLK
Structure (SMILES),EC50 (JAK1) [nM],EC50 (JAK2) [nM],EC50 (TYK2) [nM],EC50 (JAK3) [nM]
"NS(=O)(=O)c1cccc(CNC(=O)C2CCN(c3ncnc4[nH]ccc34)CC23CC3)c1 (stereo not drawn) [Example 55, 5-(7H-pyrrolo[2,3-d]pyrimidin-4-yl)-N-[(3-sulfamoylphenyl)methyl]-5-azaspiro[2.5]octane-8-carboxamide]",3.7,18.5,141,13.4
"N#Cc1cccc([C@H](CO)NC(=O)[C@H]2CCN(c3ncnc4[nH]ccc34)CC23CC3)c1 [Example 67, (8S)-N-[(1R)-1-(3-cyanophenyl)-2-hydroxy-ethyl]-5-(7H-pyrrolo[2,3-d]pyrimidin-4-yl)-5-azaspiro[2.5]octane-8-carboxamide]",5.1,5.2,45,13.8
"COc1cc(C#N)ccc1CNC(=O)[C@H]1CCN(c2ncnc3[nH]ccc23)CC12CC2 [Example 71, (8S)-N-[(4-cyano-2-methoxy-phenyl)methyl]-5-(7H-pyrrolo[2,3-d]pyrimidin-4-yl)-5-azaspiro[2.5]octane-8-carboxamide]",5.8,14.2,121,63.1
"Cc1ccc([C@H](O)[C@H](C)NC(=O)[C@H]2CCN(c3ncnc4[nH]ccc34)CC23CC3)cc1 [Example 73, (8S)-N-[(1S,2S)-2-hydroxy-1-methyl-2-(p-tolyl)ethyl]-5-(7H-pyrrolo[2,3-d]pyrimidin-4-yl)-5-azaspiro[2.5]octane-8-carboxamide]",6.1,8.3,171,30.9
"Cc1cc([C@H](O)[C@H](C)NC(=O)[C@H]2CCN(c3ncnc4[nH]ccc34)CC23CC3)ncc1F [Example 75, (8S)-N-[(1S,2R)-2-(5-fluoro-4-methyl-2-pyridyl)-2-hydroxy-1-methyl-ethyl]-5-(7H-pyrrolo[2,3-d]pyrimidin-4-yl)-5-azaspiro[2.5]octane-8-carboxamide]",6.1,16.3,50.2,102
"Cc1cc(F)ccc1[C@H](CO)NC(=O)[C@H]1CCN(c2ncnc3[nH]ccc23)CC12CC2 [Example 77, (8S)-N-[(1R)-1-(4-fluoro-2-methyl-phenyl)-2-hydroxy-ethyl]-5-(7H-pyrrolo[2,3-d]pyrimidin-4-yl)-5-azaspiro[2.5]octane-8-carboxamide]",6.2,16.3,115,31.3
"C[C@](CO)(NC(=O)[C@H]1CCN(c2ncnc3[nH]ccc23)CC12CC2)c1ccc(C#N)cn1 [Example 78, (8S)-N-[(1S)-1-(5-cyano-2-pyridyl)-2-hydroxy-1-methyl-ethyl]-5-(7H-pyrrolo[2,3-d]pyrimidin-4-yl)-5-azaspiro[2.5]octane-8-carboxamide]",6.3,17,231,39.4
"O=C(N[C@H](CO)C(=O)OCc1ccccc1)[C@H]1CCN(c2ncnc3[nH]ccc23)CC12CC2 [Example 80, benzyl (2R)-3-hydroxy-2-[[(8S)-5-(7H-pyrrolo[2,3-d]pyrimidin-4-yl)-5-azaspiro[2.5]octane-8-carbonyl]amino]propanoate]",6.7,21.8,119,24.3
"O=C(NCc1cccc(F)c1)C1CCN(c2ncnc3[nH]ccc23)CC12CC2 (stereo not drawn) [Example 81, N-[(3-fluorophenyl)methyl]-5-(7H-pyrrolo[2,3-d]pyrimidin-4-yl)-5-azaspiro[2.5]octane-8-carboxamide]",6.7,14.1,117,37.7
"N#C[C@H]1CC[C@H](CNC(=O)C2CCN(c3ncnc4[nH]ccc34)CC23CC3)C1 (stereo partly drawn) [Example 83, N-[[(1S,3S)-3-cyanocyclopentyl]methyl]-5-(7H-pyrrolo[2,3-d]pyrimidin-4-yl)-5-azaspiro[2.5]octane-8-carboxamide]",6.8,22.6,390,44.3
"C[C@@H](NC(=O)[C@H]1CCN(c2ncnc3[nH]ccc23)CC12CC2)c1ccc(C#N)c(F)c1 [Example 84, (8S)-N-[(1R)-1-(4-cyano-3-fluoro-phenyl)ethyl]-5-(7H-pyrrolo[2,3-d]pyrimidin-4-yl)-5-azaspiro[2.5]octane-8-carboxamide]",7,24.1,249,55.5
"O=C(NCc1ccncc1)C1CCN(c2ncnc3[nH]ccc23)CC12CC2 (stereo not drawn) [Example 85, N-(4-pyridylmethyl)-5-(7H-pyrrolo[2,3-d]pyrimidin-4-yl)-5-azaspiro[2.5]octane-8-carboxamide]",7.1,28.7,798,42.8
"O=C(N[C@H](CO)C(=O)OCC1CCCC1)[C@H]1CCN(c2ncnc3[nH]ccc23)CC12CC2 [Example 87, cyclopentylmethyl (2R)-3-hydroxy-2-[[(8S)-5-(7H-pyrrolo[2,3-d]pyrimidin-4-yl)-5-azaspiro[2.5]octane-8-carbonyl]amino]propanoate]",7.2,25.5,124,43
"O=C(NCC1(O)CCCC1)C1CCN(c2ncnc3[nH]ccc23)CC12CC2 (stereo not drawn) [Example 88, N-[(1-hydroxycyclopentyl)methyl]-5-(7H-pyrrolo[2,3-d]pyrimidin-4-yl)-5-azaspiro[2.5]octane-8-carboxamide]",7.2,23.7,407,58.6
"CCc1cc(C#N)ccc1[C@H](CO)NC(=O)[C@H]1CCN(c2ncnc3[nH]ccc23)CC12CC2 [Example 89, (8S)-N-[(1R)-1-(4-cyano-2-ethyl-phenyl)-2-hydroxy-ethyl]-5-(7H-pyrrolo[2,3-d]pyrimidin-4-yl)-5-azaspiro[2.5]octane-8-carboxamide]",7.5,31,284,53.7
"COc1ccc(CNC(=O)C2CCN(c3ncnc4[nH]ccc34)CC23CC3)cc1 (stereo not drawn) [Example 90, N-[(4-methoxyphenyl)methyl]-5-(7H-pyrrolo[2,3-d]pyrimidin-4-yl)-5-azaspiro[2.5]octane-8-carboxamide]",8.2,19.6,288,34.5
"COc1cc(CNC(=O)[C@H]2CCN(c3ncnc4[nH]ccc34)CC23CC3)ccc1C#N [Example 93, (8S)-N-[(4-cyano-3-methoxy-phenyl)methyl]-5-(7H-pyrrolo[2,3-d]pyrimidin-4-yl)-5-azaspiro[2.5]octane-8-carboxamide]",8.5,29.3,118,74.1
"O=C(N[C@H](CO)C(=O)OC1CCCC1)[C@H]1CCN(c2ncnc3[nH]ccc23)CC12CC2 [Example 96, cyclopentyl (2R)-3-hydroxy-2-[[(8S)-5-(7H-pyrrolo[2,3-d]pyrimidin-4-yl)-5-azaspiro[2.5]octane-8-carbonyl]amino]propanoate]",8.7,28.7,250,59.2
"COc1cc(C#N)ccc1[C@H](C)NC(=O)[C@H]1CCN(c2ncnc3[nH]ccc23)CC12CC2 [Example 97, (8S)-N-[(1S)-1-(4-cyano-2-methoxy-phenyl)ethyl]-5-(7H-pyrrolo[2,3-d]pyrimidin-4-yl)-5-azaspiro[2.5]octane-8-carboxamide]",8.7,36,315,226
"O=C(N[C@H](CO)C(=O)OCC1(CO)CCC1)[C@H]1CCN(c2ncnc3[nH]ccc23)CC12CC2 [Example 98, [1-(hydroxymethyl)cyclobutyl]methyl (2R)-3-hydroxy-2-[[(8S)-5-(7H-pyrrolo[2,3-d]pyrimidin-4-yl)-5-azaspiro[2.5]octane-8-carbonyl]amino]propanoate]",8.8,15,177,44.3
"C[C@H](NC(=O)C1CCN(c2ncnc3[nH]ccc23)CC12CC2)c1ccccc1 (stereo partly drawn) [Example 99, N-[(1S)-1-phenylethyl]-5-(7H-pyrrolo[2,3-d]pyrimidin-4-yl)-5-azaspiro[2.5]octane-8-carboxamide]",9.1,11.2,399,31.1
